Each compound was assayed against T1, LRRK2 (Homo sapiens, UniProt Q5S007, G2019S) (assay: In Vitro LRRK2 LabChip Assay (LRRK2 Ki)). Conditions: Table 5 compounds (formula I).
T1 construct: purchased Invitrogen PV4882
T1 sequence (Q5S007 whole entry G2019S): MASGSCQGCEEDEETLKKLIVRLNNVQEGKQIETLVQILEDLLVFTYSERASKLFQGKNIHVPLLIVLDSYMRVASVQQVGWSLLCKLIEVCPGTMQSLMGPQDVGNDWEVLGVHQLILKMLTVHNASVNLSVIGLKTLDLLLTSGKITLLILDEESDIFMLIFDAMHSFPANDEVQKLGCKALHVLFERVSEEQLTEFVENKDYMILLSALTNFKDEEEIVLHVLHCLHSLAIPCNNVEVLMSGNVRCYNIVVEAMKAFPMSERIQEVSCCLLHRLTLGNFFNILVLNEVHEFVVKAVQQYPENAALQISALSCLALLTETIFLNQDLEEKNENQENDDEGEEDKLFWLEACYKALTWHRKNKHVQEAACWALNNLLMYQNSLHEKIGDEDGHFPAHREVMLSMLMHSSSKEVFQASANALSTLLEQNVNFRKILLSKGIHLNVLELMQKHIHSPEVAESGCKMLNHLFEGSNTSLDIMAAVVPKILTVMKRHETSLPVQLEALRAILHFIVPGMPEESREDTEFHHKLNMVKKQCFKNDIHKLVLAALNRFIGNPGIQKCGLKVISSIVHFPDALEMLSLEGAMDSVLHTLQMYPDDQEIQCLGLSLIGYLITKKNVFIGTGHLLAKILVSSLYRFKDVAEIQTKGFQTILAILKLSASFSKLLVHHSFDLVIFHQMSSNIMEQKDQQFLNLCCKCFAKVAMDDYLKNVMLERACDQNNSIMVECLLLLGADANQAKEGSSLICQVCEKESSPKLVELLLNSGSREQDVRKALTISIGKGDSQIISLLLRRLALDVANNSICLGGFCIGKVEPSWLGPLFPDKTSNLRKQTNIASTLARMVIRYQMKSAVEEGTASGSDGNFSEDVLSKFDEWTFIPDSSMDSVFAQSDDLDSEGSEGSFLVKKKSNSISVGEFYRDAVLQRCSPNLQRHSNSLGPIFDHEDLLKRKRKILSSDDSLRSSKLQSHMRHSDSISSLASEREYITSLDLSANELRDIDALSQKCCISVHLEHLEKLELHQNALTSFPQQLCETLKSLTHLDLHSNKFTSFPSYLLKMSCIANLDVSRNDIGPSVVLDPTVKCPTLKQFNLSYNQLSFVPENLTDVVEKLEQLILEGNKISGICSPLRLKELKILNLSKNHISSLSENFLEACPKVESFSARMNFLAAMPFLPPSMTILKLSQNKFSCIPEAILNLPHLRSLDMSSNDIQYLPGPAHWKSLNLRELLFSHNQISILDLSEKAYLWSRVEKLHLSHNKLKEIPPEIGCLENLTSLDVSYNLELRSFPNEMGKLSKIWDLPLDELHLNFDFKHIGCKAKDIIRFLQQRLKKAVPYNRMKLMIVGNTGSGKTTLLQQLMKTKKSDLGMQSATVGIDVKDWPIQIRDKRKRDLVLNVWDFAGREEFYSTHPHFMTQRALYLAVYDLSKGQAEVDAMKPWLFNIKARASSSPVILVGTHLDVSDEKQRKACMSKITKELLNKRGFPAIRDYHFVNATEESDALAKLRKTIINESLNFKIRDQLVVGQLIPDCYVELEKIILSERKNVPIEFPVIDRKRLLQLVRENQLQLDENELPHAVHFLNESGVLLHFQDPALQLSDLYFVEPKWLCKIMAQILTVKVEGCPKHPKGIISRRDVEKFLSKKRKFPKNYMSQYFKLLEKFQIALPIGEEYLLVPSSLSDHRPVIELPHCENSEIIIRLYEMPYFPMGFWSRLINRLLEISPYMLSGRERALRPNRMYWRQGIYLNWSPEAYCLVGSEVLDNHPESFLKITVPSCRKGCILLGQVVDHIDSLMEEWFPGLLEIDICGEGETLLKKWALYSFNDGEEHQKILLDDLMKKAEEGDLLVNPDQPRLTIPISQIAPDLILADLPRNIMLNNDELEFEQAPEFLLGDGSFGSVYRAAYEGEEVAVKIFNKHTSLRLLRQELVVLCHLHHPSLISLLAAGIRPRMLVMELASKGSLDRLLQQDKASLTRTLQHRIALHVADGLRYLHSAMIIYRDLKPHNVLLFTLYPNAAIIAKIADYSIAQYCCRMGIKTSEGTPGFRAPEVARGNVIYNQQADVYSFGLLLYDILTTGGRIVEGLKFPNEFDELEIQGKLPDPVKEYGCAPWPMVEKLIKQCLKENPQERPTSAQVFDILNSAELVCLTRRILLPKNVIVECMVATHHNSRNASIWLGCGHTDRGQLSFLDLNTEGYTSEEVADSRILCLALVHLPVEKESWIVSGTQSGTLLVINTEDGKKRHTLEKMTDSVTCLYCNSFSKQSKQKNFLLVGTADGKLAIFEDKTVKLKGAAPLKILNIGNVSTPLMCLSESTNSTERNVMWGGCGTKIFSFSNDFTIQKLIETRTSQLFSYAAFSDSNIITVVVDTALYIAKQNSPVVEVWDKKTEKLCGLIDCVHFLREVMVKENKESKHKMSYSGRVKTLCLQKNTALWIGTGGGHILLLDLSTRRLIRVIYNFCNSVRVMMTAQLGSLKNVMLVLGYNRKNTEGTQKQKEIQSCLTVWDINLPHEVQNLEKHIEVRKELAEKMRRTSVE
Assay type: biochemical
`CNc1nc(Nc2cc(C)c(C(=O)N3CCOCC3)cc2OCC2CC2)ncc1C(F)(F)F` [Compound 109, [5-Cyclopropylmethoxy-2-methyl-4-(4-methylamino-5-trifluoromethyl-pyrimidin-2-ylamino)-phenyl]-morpholin-4-yl-methanone] showed a Ki of 1.38 nM.
Work on `CNc1nc(Nc2cc(OC)c(C(=O)N3CCCCC3)cc2OCF)ncc1C(F)(F)F` [Compound 110, [5-Fluoromethoxy-2-methoxy-4-(4-methylamino-5-trifluoromethyl-pyrimidin-2-ylamino)-phenyl]-piperidin-1-yl-methanone] yielded a Ki of 1.64 nM.
For `CCNc1nc(Nc2cc(OCF)c(C(=O)N3CCCC3)cc2Cl)ncc1C(F)(F)F` [Compound 111, [5-Chloro-4-(4-ethylamino-5-trifluoromethyl-pyrimidin-2-ylamino)-2-fluoromethoxy-phenyl]-pyrrolidin-1-yl-methanone], the Ki was 1.68 nM.
In the case of `COc1cc(Nc2ncc(C(F)(F)F)c(NC3CCC3)n2)c(F)cc1C(=O)N1CCOCC1` [Compound 112, [4-(4-Cyclobutylamino-5-trifluoromethyl-pyrimidin-2-ylamino)-5-fluoro-2-methoxy-phenyl]-morpholin-4-yl-methanone], the Ki is reported as 0.353 nM.
With `COc1cc(Nc2ncc(C(F)(F)F)c(NC3CCC3)n2)c(Cl)cc1C(=O)N1CCOCC1` [Compound 113, [5-Chloro-4-(4-cyclobutylamino-5-trifluoromethyl-pyrimidin-2-ylamino)-2-methoxy-phenyl]-morpholin-4-yl-methanone] the Ki was 0.326 nM.
`CCNc1nc(Nc2cc(F)c(C(=O)NC3(CO)CC3)cc2OC)ncc1C(F)(F)F` [Compound 114, 4-(4-Ethylamino-5-trifluoromethyl-pyrimidin-2-ylamino)-2-fluoro-N-(1-hydroxymethyl-cyclopropyl)-5-methoxy-benzamide] was tested, and the Ki was 0.559 nM.
Work on `CCNc1nc(Nc2cc(F)c(C(=O)NCC3(O)CC3)cc2OC)ncc1C(F)(F)F` [Compound 115, 4-(4-Ethylamino-5-trifluoromethyl-pyrimidin-2-ylamino)-2-fluoro-N-(1-hydroxy-cyclopropylmethyl)-5-methoxy-benzamide] yielded a Ki of 0.31 nM.
`CNc1nc(Nc2cc(C)c(C(=O)NCC(C)(C)O)cc2OC)ncc1C(F)(F)F` [Compound 116, N-(2-Hydroxy-2-methyl-propyl)-5-methoxy-2-methyl-4-(4-methylamino-5-trifluoromethyl-pyrimidin-2-ylamino)-benzamide] showed a Ki of 1.19 nM.
Compound `CCNc1nc(Nc2cc(OC)c(C(=O)N3CC[C@H](F)C3)cc2Cl)ncc1C#N` [Compound 117, 2-[2-Chloro-4-((S)-3-fluoro-pyrrolidine-1-carbonyl)-5-methoxy-phenylamino]-4-ethylamino-pyrimidine-5-carbonitrile] has a Ki of 12.7 nM.
`CCNc1nc(Nc2cc(F)c(C(=O)N3CCOCC3)cc2C)ncc1C(F)(F)F` [Compound 118, [4-(4-Ethylamino-5-trifluoromethyl-pyrimidin-2-ylamino)-2-fluoro-5-methyl-phenyl]-morpholin-4-yl-methanone] showed a Ki of 2.76 nM.
`COc1nc(Nc2cc(C)c(C(=O)N3CCCC3)cc2OCF)ncc1Cl` [Compound 119, [4-(5-Chloro-4-methoxy-pyrimidin-2-ylamino)-5-fluoromethoxy-2-methyl-phenyl]-pyrrolidin-1-yl-methanone] showed a Ki of 11.2 nM.
`CNc1nc(Nc2cc(OC)c(C(=O)N(C)C)cc2OCF)ncc1C(F)(F)F` [Compound 120, 5-Fluoromethoxy-2-methoxy-N,N-dimethyl-4-(4-methylamino-5-trifluoromethyl-pyrimidin-2-ylamino)-benzamide] showed a Ki of 4.42 nM.
Compound `CCNc1nc(Nc2cc(OCF)c(C(=O)N3CCCC3)cc2F)ncc1C(F)(F)F` [Compound 121, [4-(4-Ethylamino-5-trifluoromethyl-pyrimidin-2-ylamino)-5-fluoro-2-fluoromethoxy-phenyl]-pyrrolidin-1-yl-methanone] has a Ki of 3.43 nM.
`CNc1nc(Nc2cc(OC)c(C(=O)N3CCOCC3)c(OC)c2F)ncc1C(F)(F)F` [Compound 122, [3-Fluoro-2,6-dimethoxy-4-(4-methylamino-5-trifluoromethyl-pyrimidin-2-ylamino)-phenyl]-morpholin-4-yl-methanone] showed a Ki of 2.06 nM.
`[2H]C1([2H])C(Nc2nc(Nc3cc(F)c(C(=O)N4CCOCC4)cc3OC)ncc2C(F)(F)F)C1([2H])[2H]` [Compound 123, (4-(4-(2,3-tetradeutero-cyclopropylamino)-5-(trifluoromethyl)pyrimidin-2-ylamino)-2-fluoro-5-methoxyphenyl)(morpholino)methanone] gave a Ki of 0.31 nM.
Work on `CNc1nc(Nc2cc(OC(F)(F)F)c(C(=O)N3CCOCC3)cc2OC)ncc1C(F)(F)F` [Compound 124, [5-Methoxy-4-(4-methylamino-5-trifluoromethyl-pyrimidin-2-ylamino)-2-trifluoromethoxy-phenyl]-morpholin-4-yl-methanone] yielded a Ki of 4.3 nM.
Work on `CCNc1nc(Nc2cc(OC)c(C(=O)N3CCOCC3)cc2OC)ncc1C(F)(F)F` [Compound 125, [4-(4-Ethylamino-5-trifluoromethyl-pyrimidin-2-ylamino)-2,5-dimethoxy-phenyl]-morpholin-4-yl-methanone] yielded a Ki of 0.577 nM.
`CNc1nc(Nc2cc(Cl)c(C(=O)N3CCOCC3)cc2C)ncc1C(F)(F)F` [Compound 126, [2-Chloro-5-methyl-4-(4-methylamino-5-trifluoromethyl-pyrimidin-2-ylamino)-phenyl]-morpholin-4-yl-methanone] showed a Ki of 6.79 nM.
Work on `COc1cc(C(=O)N2CCOCC2)c(C)cc1Nc1ncc(C(F)(F)F)c(NC2CCC2)n1` [Compound 129, [4-(4-Cyclobutylamino-5-trifluoromethyl-pyrimidin-2-ylamino)-5-methoxy-2-methyl-phenyl]-morpholin-4-yl-methanone] yielded a Ki of 0.31 nM.
`CNc1nc(Nc2cc(C)c(C(=O)N3CCOCC3)cc2C)ncc1C(F)(F)F` [Compound 130, [2,5-Dimethyl-4-(4-methylamino-5-trifluoromethyl-pyrimidin-2-ylamino)-phenyl]-morpholin-4-yl-methanone] gave a Ki of 4.74 nM.

Same assay, conditions: Table 6 compounds (formula II/III, fused ring)
With “[5-Chloro-2-hydroxy-4-(4-methylamino-5-trifluoromethyl-pyrimidin-2-ylamino)-phenyl]-morpholin-4-yl-methanone [Compound 10]” the Ki was 3.17 nM.
